Test results published in patent publication US10137070B2 (Industry-Academic Cooperation Foundation, Yonsei University, priority 2016, dated 2018).

What was measured:
[1] = test system: human skin fibroblasts; test: Procollagen type I C-peptide (PIP) secretion of UVB-irradiated human skin fibroblasts (EIA kit); format: cell-based; settings: 100 μM each; UVB 20 mJ/cm^2; 24 hours culture; mean of three wells
Procedure: Primary dermal fibroblasts (normal, human, neonatal, ATCC No. PCS-201-010) were purchased from ATCC (Manassas, Va., USA). The purchased cells were incubated in a 5% CO2 incubator at 37° C. by using a fibroblast growth medium (Promo Cell, Heidelberg) and used in experiments.
To examine collagen biosynthesis ability, human fibroblasts were distributed into a 12 well-plate at a concentration of 1.0×10^6 cells/well, α-ionone and vitamin C were added thereto at a concentration of 100 μM each, and the resulting human fibroblasts were incubated in a CO2 incubator for 24 hours. After removing the medium from each well, the plate was washed once with PBS, and 1 ml of PBS was added thereto, followed by irradiation with ultraviolet B (UVB) at a dose of 20 mJ/cm^2. The PBS of each well was replaced by a medium and the human fibroblasts were cultured for 24 hours, and then the amount of procollagen secreted into the medium was measured using a procollagen type C-peptide EIA kit (Takara Bio, Japan). A standard solution included in the collagen measurement kit was diluted according to concentration, absorbance was measured at 450 nm to create a standard concentration curve, and the amount of collagen produced was calculated. […]

[2] = Body weights and food intakes of hairless mice fed experimental diets; format: in vivo, albino hairless mice (Skh-1); settings: 0.2% in AIN-93 diet for 10 weeks; UVB-irradiated hairless mice
Excerpt: (§1) 5-week-old female albino hairless mice (Skh-1) used in the present example were purchased from ORIENTBIO (Gyeonggi-do, Korea) and subjected to an adaptation period of 1 week with solid feed. The experimental animal was divided into 4 groups and 5 mice were assigned to each group. All the experimental groups were divided into a normal control not irradiated with ultraviolet rays (−UVB), a group irradiated with ultraviolet rays (+UVB), and a group irradiated with ultraviolet rays and treated with α-ionone (αIO) or vitamin C (VitC). During a rearing period, the experimental groups were freely fed feed and water, temperature and humidity were maintained at 22±1° C. and 60±5%, a light period and a dark period were adjusted every day to 12 hours.
(§2) The −UVB and +UVB groups were fed a purified diet formulated based on the AIN-93 rodent diet composition (Ree yes, P G et al., J Nutr, 123:1939-1951, 1993) for 10 weeks, the αIO group were fed an AIN-93 purified diet with 0.2% of α-ionone (Sigma-Aldrich) for 10 weeks, and the VitC group was fed a diet, prepared by adding 0.2% of vitamin C (Sigma-Aldrich) to the AIN-93 purified diet, for 10 weeks. The diets were supplied daily with water between 10 am and 11 am, and food intakes were measured daily.
(§3) During the experimental rearing period, dorsal parts of the hairless mice were irradiated with UVB three times a week, and the amount of ultraviolet radiation was 73 mJ/cm^2 for the first one week, 146 mJ/cm^2 for the second week, and 219 mJ/cm^2 for the third week to the tenth week. During rearing, body weights and skin thicknesses of the experimental groups were measured weekly, and images of dorsal skin parts thereof were taken. The skin thicknesses of buttocks of the hairless mice were measured using a digital micro caliper (Marathon Watch Company Ltd, Ontario, Canada).

[3] = test system: collagen fibers in dermis layers of UV-irradiated hairless mice; test: Collagen fibers in dermis layer by Masson's trichrome staining; format: in vivo, albino hairless mice (Skh-1); settings: 0.2% in diet for 10 weeks; UVB for 10 weeks
Excerpt: as §1
(§4) The −UVB and +UVB groups were fed a purified diet formulated based on the AIN-93 rodent diet composition (Ree yes, P G et al., J Nutr, 123:1939-1951, 1993) for 10 weeks, the αIO group were fed an AIN-93 purified diet with 0.2% of α-ionone (Sigma-Aldrich) for 10 weeks, and the VitC group was fed a diet, prepared by adding 0.2% of vitamin C (Sigma-Aldrich) to the AIN-93 purified diet, for 10 weeks. The diets were supplied daily with water between 10 am and 11 am, and food intakes were measured daily. […]

[4] = test system: skin tissues of ultraviolet rays-irradiated hairless mice; test: Skin moisture content, moisture evaporation, elasticity and erythema index of UVB-irradiated hairless mice (Corneometer, Tewameter, Cutometer, Mexameter); format: in vivo, albino hairless mice (Skh-1); settings: 0.2% in diet for 10 weeks; UVB three times a week; last day
Excerpt: as §1, §2, §3
Skin moisture content, moisture evaporation, elasticity, and the erythema index of each of the experimental animal groups were measured once on the last day of the experiment using Corneometer®, Tewameter®, Cutometer®, and Mexameter® (Courage+Khazaka electronic GmbH), respectively. During the measurement, the value obtained by lightly pressing a certain portion of the experimental animal or the like was recorded.

[5] = test system: skin of UV-irradiated hairless mice; test: Skin thickness of UV-irradiated hairless mice (digital micro caliper); format: in vivo, albino hairless mice (Skh-1); settings: last day, 0.2% in diet for 10 weeks
Excerpt: as §1, §4

[6] = test system: dorsal skin of ultraviolet rays-irradiated hairless mice; test: Wrinkle formation on dorsal skin of UVB-irradiated hairless mice (images, silicone replica, image analyzer); format: in vivo, albino hairless mice (Skh-1); settings: 0.2% in diet for 10 weeks
Excerpt: as §1, §2, §3
The skin of each hairless mouse irradiated with ultraviolet rays for 10 weeks was replicated using silicone rubber and a degree of the formation of wrinkles was measured. A disk with a circular hole having a diameter of 1 cm was attached to a dorsal part of the hairless mouse, reagents for preparing a replica were mixed, the mixed resultant was thinly spread on the dorsal art of the hairless mouse and completely dried, and then the disk was carefully detached therefrom, thereby completing the preparation of the replica. The replica was prepared at a temperature of about 20° C. to about 23° C. and a humidity of about 45% to about 50% under constant temperature and constant humidity conditions, a silicon rubber impression material (Epigem, Seoul, Korea) for preparing a replica was used. To analyze the prepared replica, four wrinkle indexes, such as a total wrinkle area, a maximum wrinkle depth, a mean depth, and a mean length were analyzed using a computer image analyzer (Visioline VL650, Courage+Khazaka electronic GmbH, Germany).

[7] = test system: Collagen type III alpha1 (Col3α1); test: RT-PCR gene expression in dorsal skin tissue: Col3α1; format: in vivo, albino hairless mice (Skh-1); settings: 0.2% in diet for 10 weeks
Excerpt: as §1, §4

[8] = test system: Matrix metallopeptidase 1b (MMP-1b); test: RT-PCR gene expression in dorsal skin tissue: MMP-1b; format: in vivo, albino hairless mice (Skh-1); settings: 0.2% in diet for 10 weeks
Excerpt: as §1, §4

[9] = test system: Matrix metallopeptidase 9 (MMP-9); test: RT-PCR gene expression in dorsal skin tissue: MMP-9; format: in vivo, albino hairless mice (Skh-1); settings: 0.2% in diet for 10 weeks
Excerpt: as §1, §4

[10] = test system: Matrix metallopeptidase 3 (MMP-3); test: RT-PCR gene expression in dorsal skin tissue: MMP-3; format: in vivo, albino hairless mice (Skh-1); settings: 0.2% in diet for 10 weeks
Excerpt: as §1, §4

[11] = test system: Collagen type I alpha2 (Col1α2); test: RT-PCR gene expression in dorsal skin tissue: Col1α2; format: in vivo, albino hairless mice (Skh-1); settings: 0.2% in diet for 10 weeks
Excerpt: as §1, §4

[12] = test system: Collagen type I alpha1 (Col1α1); test: RT-PCR gene expression in dorsal skin tissue: Col1α1; format: in vivo, albino hairless mice (Skh-1); settings: 0.2% in diet for 10 weeks
Excerpt: as §1, §4

[13] = test system: Matrix metallopeptidase 1a (MMP-1a); test: RT-PCR gene expression in dorsal skin tissue: MMP-1a; format: in vivo, albino hairless mice (Skh-1); settings: 0.2% in diet for 10 weeks
Excerpt: as §1, §4

[14] = test system: skin epidermis layer of UV-irradiated hairless mice; test: Skin epidermis layer thickness by H&E staining; format: in vivo, albino hairless mice (Skh-1); settings: 0.2% in diet for 10 weeks; UVB for 10 weeks
Excerpt: as §1, §4

[15] = in vivo; cited from earlier work
[16] = test system: microorganisms harmful to the human body; settings: Findic et al 2009; cited from earlier work
[17] = test system: rats; settings: 32 rats, orally 10 mg/day for 8 weeks; cited from earlier work
[18] = replica, computer image analyzer

Compound: O=C1O[C@H]([C@@H](O)CO)C(O)=C1O [vitamin C, reference compound]
- increase in the amount of collagen (procollagen type I C-peptide secreted) compared to control cells irradiated with ultraviolet rays alone (+UVB) [1]: 37%
- effect on body weights [2]: no significant effect
- effect on food intakes [2]: no significant effect

Compound: CC(=O)/C=C/C1C(C)=CCCC1(C)C (stereo not drawn) [α-ionone, (3E)-4-(2,6,6-trimethylcyclohex-2-en-1-yl)but-3-en-2-one]
- collagen fibers of the dermis layer (Masson's trichrome, aniline blue) compared to the control irradiated alone [3]: relatively more compact and regularly arranged
- decrease in erythema index compared to the +UVB control [4]: 26%
- decrease in moisture evaporation compared to the +UVB control [4]: 46%
- increase in elasticity of skin tissue compared to the +UVB control [4]: 77%
- increase in moisture content of skin tissue compared to the +UVB control [4]: 78%
- decrease in skin thickness compared to the +UVB control [5]: 19%
- degree of formation of wrinkles in silicone rubber replica compared to the +UVB control ([6]; UVB for 10 weeks): significant improvement on the thickness and depth of wrinkles
- skin wrinkles in images of dorsal skin (naked eye) compared to the +UVB control ([6]; UVB for 10 weeks): significant decrease in the thickness and depth of wrinkles
- decrease in maximum wrinkle depth compared to the +UVB control [6, 18]: 49%
- decrease in mean depth of wrinkles compared to the +UVB control [6, 18]: 39%
- decrease in mean length of wrinkles compared to the +UVB control [6, 18]: 68%
- decrease in total wrinkle area compared to the +UVB control [6, 18]: 60%
- expression of collagen type 3α1 compared to the +UVB control [7]: significant increase
- increase in the amount of collagen (procollagen type I C-peptide secreted) compared to control cells irradiated with ultraviolet rays alone (+UVB) [1]: 37%
- expression of MMP-1b gene compared to the +UVB control [8]: significant decrease
- expression of MMP-9 gene compared to the +UVB control [9]: significant decrease
- effect on body weights [2]: no significant effect
- effect on food intakes [2]: no significant effect
- expression of MMP-3 gene compared to the +UVB control [10]: significant decrease
- expression of collagen type 1α2 compared to the +UVB control [11]: significant increase
- expression of collagen type 1α1 compared to the +UVB control [12]: significant increase
- expression of MMP-1a gene compared to the +UVB control [13]: significant decrease
- thickness of the thickened epidermis layer due to UV irradiation (H&E staining) [14]: significant decrease

Compound: ionone
- LD50 [15]: 2 g/kg body weight
- antimicrobial activity [16]: strong antimicrobial activity
- toxicity after oral administration [17]: no toxicity was shown
